Reference: ChEMBL document CHEMBL5543168, “Discovery of Urea Derivatives of Celastrol as Selective Peroxiredoxin 1 Inhibitors against Colorectal Cancer Cells” (J Med Chem, 2024)
Active and inactive are the calls of the source. The calls are words filed in the database; no cut-off is given here.

Columns and labels:
[1] = system: SW-620; assay: Induction of apoptosis in human SW620 cells assessed as total apoptotic cells at 1 uM incubated for 48 hrs by Annexin V-FITC/PI staining based flow cytometry relative to control; format: functional
[2] = system: SW-620; assay: Induction of cell cycle arrest at G2/M phase in human SW620 cells at 0.5 to 2 uM incubated for 48 hrs by PI staining based flow cytometry relative to control; format: functional; details: dose 0.5-2 µM
[3] = system: SW-620; assay: Induction of mitochondrial membrane potential depolarization in human SW620 cells assessed as decrease in fluorescence intensity ratio of JC1-stained aggregates to monomers incubated for 48 hrs by CLSM analysis; format: functional, cell-based; details: dose 0.5-2 µM
[4] = system: SW-620; assay: Antitumor activity against human SW620 cells xenografted in BALB/c nude mouse assessed as decrease in Ki-67 level at 2 mg/kg, ip qd for 16 days by IHC analysis; format: functional, organism-based; details: time 16.0 day
[5] = system: SW-620; assay: Induction of cell cycle arrest at G1 phase in human SW620 cells at 2 uM incubated for 24 hrs by PI staining based flow cytometry (reference value: 32.4 %); format: functional
[6] = Half life in mouse at 2 mg/kg, iv measured for 24 hrs by LC-MS/MS analysis; format: ADME, organism-based; details: in vivo
[7] = Selectivity ratio of IC50 for human LX2 cells to IC50 for human HCT-116 cells; format: functional
[8] = system: SW-620; assay: Induction of cell cycle arrest at S phase in human SW620 cells at 1 uM incubated for 24 hrs by PI staining based flow cytometry (reference value: 59.9 %); format: functional
[9] = molecular target: T1, Peroxiredoxin-1 (Homo sapiens, UniProt Q06830); assay: Binding affinity to CM5 sensor chip-immobilized recombinant PRDX1 (unknown origin) assessed as dissociation constant by SPR analysis
T1 sequence (Q06830 whole entry): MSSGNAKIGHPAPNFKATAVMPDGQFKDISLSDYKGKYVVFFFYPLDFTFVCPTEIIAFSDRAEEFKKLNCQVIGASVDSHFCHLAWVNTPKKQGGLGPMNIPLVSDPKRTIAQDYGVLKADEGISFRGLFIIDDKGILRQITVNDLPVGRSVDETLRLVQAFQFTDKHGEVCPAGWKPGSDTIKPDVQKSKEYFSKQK

[10] = system: SW-620; assay: Induction of cell cycle arrest at G2 phase in human SW620 cells at 1 uM incubated for 24 hrs by PI staining based flow cytometry (reference value: 6.77 %); format: functional
[11] = system: SW-620; assay: Induction of mitochondrial membrane potential depolarization in human SW620 cells assessed as increase in green fluorescence incubated for 48 hrs by JC1-staining based CLSM analysis; format: functional, cell-based; details: dose 0.5-2 µM
[12] = molecular target: T2, Peroxiredoxin-2 (Homo sapiens, UniProt P32119); assay: Inhibition of recombinant PRDX2 (unknown origin) using H2O2 as substrate preincubated for 0.5 hrs followed by substrate addition by TRX-TrxR-NADPH coupling assay
T2 sequence (P32119 whole entry): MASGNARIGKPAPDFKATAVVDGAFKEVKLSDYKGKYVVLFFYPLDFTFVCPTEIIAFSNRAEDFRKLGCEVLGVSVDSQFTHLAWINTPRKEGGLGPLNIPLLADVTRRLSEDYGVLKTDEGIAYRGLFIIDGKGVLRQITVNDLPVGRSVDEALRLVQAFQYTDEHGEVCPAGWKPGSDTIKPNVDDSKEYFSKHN

[13] = system: SW-620; assay: Induction of apoptosis in human SW620 cells assessed as decrease in Bcl-2 level incubated for 48 hrs by Western blot analysis; format: functional, cell-based; details: dose 0.25-2 µM
[14] = system: SW-620; assay: Induction of cell cycle arrest at S phase in human SW620 cells at 2 uM incubated for 24 hrs by PI staining based flow cytometry (reference value: 59.9 %); format: functional
[15] = molecular target: T3, Peroxiredoxin-5, mitochondrial (Homo sapiens, UniProt P30044); assay: Inhibition of recombinant PRDX5 (unknown origin) using H2O2 as substrate preincubated for 0.5 hrs followed by substrate addition by TRX-TrxR-NADPH coupling assay
T3 sequence (P30044 whole entry): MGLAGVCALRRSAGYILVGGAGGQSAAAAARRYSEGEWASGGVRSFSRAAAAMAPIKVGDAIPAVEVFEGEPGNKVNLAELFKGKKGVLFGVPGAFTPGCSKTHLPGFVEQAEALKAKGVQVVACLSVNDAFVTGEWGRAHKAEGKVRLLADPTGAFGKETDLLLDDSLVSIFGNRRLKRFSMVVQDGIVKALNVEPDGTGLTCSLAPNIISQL

[16] = system: SW-620; assay: Induction of mitochondrial membrane potential depolarization in human SW620 cells assessed as change in morphological characteristics at 0.5 to 2 uM incubated for 48 hrs by bright-field microscopy; format: functional, cell-based; details: dose 0.5-2 µM
[17] = system: SW-620; assay: Induction of cell cycle arrest at G1 phase in human SW620 cells at 1 uM incubated for 24 hrs by PI staining based flow cytometry (reference value: 32.4 %); format: functional
[18] = system: SW-620; assay: cells; details: Homo sapiens, SW-620, 48 h, read-out: Activity
Description: Induction of apoptosis in human SW620 cells assessed as viable cells at 0.5 uM incubated for 48 hrs by Annexin V-FITC/PI staining based flow cytometry (Rvb = 90.7 %)

[19] = system: SW-620; assay: Induction of mitochondrial membrane potential depolarization in human SW620 cells assessed as increase in JC-1-stained green cells at 0.5 to 2 uM incubated for 48 hrs by flow cytometry; format: functional, cell-based; details: dose 0.5-2 µM
[20] = system: SW-620; assay: Induction of apoptosis in human SW620 cells assessed as decrease in Bcl-xl level incubated for 48 hrs by Western blot analysis; format: functional, cell-based; details: dose 0.25-2 µM
[21] = Selectivity ratio of IC50 for human LX2 cells to IC50 for human SW620 cells; format: functional
[22] = system: SW-620; assay: Induction of mitochondrial membrane potential depolarization in human SW620 cells assessed as JC-1-stained green cells upto 2 uM incubated for 48 hrs by flow cytometry (reference value: 8.9 %); format: functional; details: up to 2 µM
[23] = Volume of distribution in mouse at 2 mg/kg, iv measured for 24 hrs by LC-MS/MS analysis; format: ADME, organism-based; details: in vivo
[24] = Antiproliferative activity against mouse […] cells; format: toxicity, cell-based
[25] = system: SW-620; assay: Induction of apoptosis in human SW620 cells assessed as total apoptotic cells at 2 uM incubated for 48 hrs by Annexin V-FITC/PI staining based flow cytometry relative to control; format: functional
[26] = system: SW-620; assay: Induction of cell cycle arrest at G1 phase in human SW620 cells at 0.5 uM incubated for 24 hrs by PI staining based flow cytometry (reference value: 32.4 %); format: functional
[27] = system: SW-620; assay: Antitumor activity against human SW620 cells xenografted in BALB/c nude mouse at 2 mg/kg, ip qd for 16 days relative to control; format: functional; details: SW-620, 384 h, time 16 day, read-out: TGI
[28] = system: SW-620; assay: cells; details: Homo sapiens, SW-620, 48 h, read-out: Activity; remark: listed apart in the source
Description: Induction of apoptosis in human SW620 cells assessed as viable cells at 2 uM incubated for 48 hrs by Annexin V-FITC/PI staining based flow cytometry (Rvb = 90.7 %)

[29] = Cmax in mouse at 2 mg/kg, iv measured for 24 hrs by LC-MS/MS analysis; format: ADME, organism-based; details: in vivo

Compound: COC(=O)C1(NC(=O)N[C@]2(C)CC[C@]3(C)CC[C@]4(C)C5=CC=C6C(=CC(=O)C(O)=C6C)[C@]5(C)CC[C@@]4(C)[C@@H]3C2)CCC1
- Activity [1]: 19%
- Activity [2]: 7.1%
- Activity [3]: Dose-Dependent Effect
- Activity [4]: Active
- Activity [5]: 29.2%
- half-life [6]: 8.46 h
- Selectivity ratio [7]: 2
- Activity [8]: 42.7%
- Kd [9]: 370 nM
- Activity [10]: 14.6%
- Activity [11]: Dose-Dependent Effect
- IC50 [12]: > 50000 nM
- Activity [13]: Dose-Dependent Effect
- Activity [14]: 50.1%
- IC50 [15]: > 50000 nM
- Activity [16]: Active
- Activity [17]: 39.7%
- viability at 0.5 µM [18]: 88.5%
- Activity [19]: Active
- Activity [20]: Dose-Dependent Effect
- Selectivity ratio [21]: 2
- Activity [22]: 54.6%
- Vd [23]: 60.7 L/kg
- IC50 [24]: ~1000 nM
- Activity [25]: 54.7%
- Activity [26]: 33.5%
- inhibition in vivo at 2 mg/kg [27]: 45.4%
- viability at 2 µM [28]: 41.5%
- Cmax [29]: 203 ng/mL
